Reference: patent publication US8450320B2, “Pyrrolopyrazinone inhibitors of kinases” (AbbVie Inc., priority 2010, dated 2013)

Molecular target: T1, Cdc7 (BEV coexpressed huCDC7/DBF4) (Homo sapiens, UniProt O00311)
T1 construct: made in house; host or cells: BEV (baculovirus expression vector)
Assay: Cdc7 enzyme inhibition assay ([33P]-ATP, biotinylated peptide substrate, FlashPlate)
Format: biochemical
Settings: Ki generated from IC50 assuming ATP-competitive inhibition; 1 μM ATP, apparent ATP Km 0.7 μM
Experimental: This example describes the assays that may be used to identify compounds having kinase activity.
Cdc7 (BEV coexpressed huCDC7/DBF4) is prepared internally. Cdc7 assays are conducted as follows with final concentrations as listed. In 384-well v-bottom polypropylene plates, 6 μL compound (2% DMSO), is mixed with 6 μL of Cdc7 (2 ug/mL), and Jerini peptide substrate A-All (biotin-C6linker-TPSDSLIYDDGLS) (2 μM), followed by immediate initiation with 6 μL […] (1 μM, 20 mCi/μmol) using a reaction buffer comprising 25 mM HEPES, pH 7.5, 1 mM DTT, 10 mM MgCl2, 100 μM Na3VO4, 0.075 mg/ml Triton X-100. Reactions are quenched after 1 hr by the addition of 90 μL stop buffer (50 mM EDTA, 2M NaCl). 85 μL of the stopped reactions are transferred to 384-well streptavidin-coated plates (FlashPlate Plus, Perkin Elmer), incubated 30 minutes at room temperature and washed 3 times with 0.05% Tween-20/PBS using an ELX-405 automated plate washer (BioTek), and counted on a TopCount Scintillation Plate Reader (Packard). IC50 values are determined via non-linear regression fitting of enzyme inhibition data and corresponding Ki values are generated assuming ATP-competitive (equilibrium) inhibition and using the experimentally determined apparent ATP Km of 0.7 μM (as determined using the above assay condition, but varying ATP).
Table 1 depicts enzyme inhibition data (Ki) for exemplary compounds. In Table 1, “A” represents a Ki of less than 10 nM, “B” represents a Ki of between 10 nM and 100 nM, and “C” represents a Ki of greater than 100 nM.

T1 sequence (O00311 whole entry): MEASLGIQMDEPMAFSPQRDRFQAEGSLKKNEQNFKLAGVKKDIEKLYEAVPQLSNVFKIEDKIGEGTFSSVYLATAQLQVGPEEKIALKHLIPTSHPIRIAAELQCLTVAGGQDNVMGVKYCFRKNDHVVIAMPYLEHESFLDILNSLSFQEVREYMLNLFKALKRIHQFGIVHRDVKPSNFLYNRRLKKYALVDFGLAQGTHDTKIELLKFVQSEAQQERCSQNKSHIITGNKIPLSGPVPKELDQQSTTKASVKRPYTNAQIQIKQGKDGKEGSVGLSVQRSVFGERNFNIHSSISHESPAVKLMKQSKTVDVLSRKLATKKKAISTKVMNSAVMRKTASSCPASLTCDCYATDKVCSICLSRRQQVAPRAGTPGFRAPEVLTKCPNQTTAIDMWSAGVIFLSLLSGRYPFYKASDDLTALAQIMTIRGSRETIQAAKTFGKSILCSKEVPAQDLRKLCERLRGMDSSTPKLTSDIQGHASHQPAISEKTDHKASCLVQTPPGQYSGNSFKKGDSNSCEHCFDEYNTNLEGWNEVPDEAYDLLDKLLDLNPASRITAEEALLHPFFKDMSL
T1 sequence (Q9UBU7 whole entry partner): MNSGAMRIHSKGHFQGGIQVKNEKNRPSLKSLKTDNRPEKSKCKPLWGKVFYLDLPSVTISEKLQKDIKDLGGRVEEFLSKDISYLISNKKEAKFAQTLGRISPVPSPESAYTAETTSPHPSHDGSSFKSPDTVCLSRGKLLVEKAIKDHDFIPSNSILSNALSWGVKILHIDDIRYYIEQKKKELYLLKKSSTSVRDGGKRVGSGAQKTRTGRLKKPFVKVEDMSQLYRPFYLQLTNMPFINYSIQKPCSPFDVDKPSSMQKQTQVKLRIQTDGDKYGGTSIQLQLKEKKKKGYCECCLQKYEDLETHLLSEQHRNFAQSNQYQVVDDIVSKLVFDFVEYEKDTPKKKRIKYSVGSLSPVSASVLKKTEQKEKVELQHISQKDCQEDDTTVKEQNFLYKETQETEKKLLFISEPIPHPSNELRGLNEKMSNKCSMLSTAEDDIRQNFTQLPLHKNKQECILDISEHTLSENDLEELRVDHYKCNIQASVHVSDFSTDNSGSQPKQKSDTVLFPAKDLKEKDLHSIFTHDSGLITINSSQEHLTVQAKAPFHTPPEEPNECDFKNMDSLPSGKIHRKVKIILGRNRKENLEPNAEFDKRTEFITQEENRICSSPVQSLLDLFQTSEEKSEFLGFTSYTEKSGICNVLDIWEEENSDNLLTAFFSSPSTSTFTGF

Row | Structure (SMILES) | Ki
1 | O=c1[nH]cc(Cc2ccc(CN(C3CCC3)C3CCC3)cc2)n2cc(-c3c[nH]c4ncccc34)cc12 [Example 30, 4-{4-[(dicyclobutylamino)methyl]benzyl}-7-(1H-pyrrolo[2,3-b]pyridin-3-yl)pyrrolo[1,2-a]pyrazin-1(2H)-one] | 10 to 100 nM
2 | CN(C)CC(=O)Nc1cccc(Cc2c[nH]c(=O)c3cc(-c4c[nH]c5ncccc45)cn23)c1 [Example 33, N^2,N^2-dimethyl-N-(3-{[1-oxo-7-(1H-pyrrolo[2,3-b]pyridin-3-yl)-1,2-dihydropyrrolo[1,2-a]pyrazin-4-yl]methyl}phenyl)glycinamide] | < 10 nM
3 | CC(C)N1CCC(Nc2ccc(Cc3c[nH]c(=O)c4cc(-c5c[nH]c6ncccc56)cn34)cc2)CC1 [Example 32, 4-{4-[(1-isopropylpiperidin-4-yl)amino]benzyl}-7-(1H-pyrrolo[2,3-b]pyridin-3-yl)pyrrolo[1,2-a]pyrazin-1(2H)-one] | < 10 nM
4 | NC1CCC(NCc2ccc(Cc3c[nH]c(=O)c4cc(-c5c[nH]c6ncccc56)cn34)cc2)CC1 (centres unmarked) [Example 44, 4-(4-{[(4-aminocyclohexyl)amino]methyl}benzyl)-7-(1H-pyrrolo[2,3-b]pyridin-3-yl)pyrrolo[1,2-a]pyrazin-1(2H)-one] | < 10 nM
5 | O=C(Nc1ccc(Cc2c[nH]c(=O)c3cc(-c4c[nH]c5ncccc45)cn23)cc1)c1ccncc1 [Example 17, N-(4-{[1-oxo-7-(1H-pyrrolo[2,3-b]pyridin-3-yl)-1,2-dihydropyrrolo[1,2-a]pyrazin-4-yl]methyl}phenyl)isonicotinamide] | < 10 nM
6 | CS(=O)(=O)Nc1ccc(Cc2c[nH]c(=O)c3cc(-c4c[nH]c5ncccc45)cn23)cc1 [Example 38, N-(4-{[1-oxo-7-(1H-pyrrolo[2,3-b]pyridin-3-yl)-1,2-dihydropyrrolo[1,2-a]pyrazin-4-yl]methyl}phenyl)methanesulfonamide] | < 10 nM
7 | CS(=O)(=O)Nc1cccc(Cc2c[nH]c(=O)c3cc(-c4c[nH]c5ncccc45)cn23)c1 [Example 21, N-(3-{[1-oxo-7-(1H-pyrrolo[2,3-b]pyridin-3-yl)-1,2-dihydropyrrolo[1,2-a]pyrazin-4-yl]methyl}phenyl)methanesulfonamide] | < 10 nM
8 | O=C(Nc1ccc(Cc2c[nH]c(=O)c3cc(-c4c[nH]c5ncccc45)cn23)cc1)C1CC1 [Example 20, N-(4-{[1-oxo-7-(1H-pyrrolo[2,3-b]pyridin-3-yl)-1,2-dihydropyrrolo[1,2-a]pyrazin-4-yl]methyl}phenyl)cyclopropanecarboxamide] | < 10 nM
9 | CN(c1cccc(Cc2c[nH]c(=O)c3cc(-c4c[nH]c5ncccc45)cn23)c1)C1CCC1 [Example 19, 4-{3-[cyclobutyl(methyl)amino]benzyl}-7-(1H-pyrrolo[2,3-b]pyridin-3-yl)pyrrolo[1,2-a]pyrazin-1(2H)-one] | 10 to 100 nM

Continued, values first:

Row | Ki | Structure (SMILES)
10 | < 10 nM | CN(C)Cc1ccc(Cc2c[nH]c(=O)c3cc(-c4c[nH]c5ncccc45)cn23)cc1 [Example 36, 4-{4-[(dimethylamino)methyl]benzyl}-7-(1H-pyrrolo[2,3-b]pyridin-3-yl)pyrrolo[1,2-a]pyrazin-1(2H)-one]
11 | 10 to 100 nM | O=c1[nH]cc(Cc2cccc(N(C3CCC3)C3CCC3)c2)n2cc(-c3c[nH]c4ncccc34)cc12 [Example 27, 4-[3-(dicyclobutylamino)benzyl]-7-(1H-pyrrolo[2,3-b]pyridin-3-yl)pyrrolo[1,2-a]pyrazin-1(2H)-one]
12 | < 10 nM | CN(C)c1cccc(Cc2c[nH]c(=O)c3cc(-c4c[nH]c5ncccc45)cn23)c1 [Example 41, 4-[3-(dimethylamino)benzyl]-7-(1H-pyrrolo[2,3-b]pyridin-3-yl)pyrrolo[1,2-a]pyrazin-1(2H)-one]
13 | < 10 nM | CCOC(=O)c1cccc(Cc2c[nH]c(=O)c3cc(-c4cn[nH]c4)cn23)c1 [Example 9, ethyl 3-{[1-oxo-7-(1H-pyrazol-4-yl)-1,2-dihydropyrrolo[1,2-a]pyrazin-4-yl]methyl}benzoate]
14 | < 10 nM | O=C(O)c1cc(Cc2c[nH]c(=O)c3cc(-c4c[nH]c5ncccc45)cn23)ccc1F [Example 3, 2-fluoro-5-{[1-oxo-7-(1H-pyrrolo[2,3-b]pyridin-3-yl)-1,2-dihydropyrrolo[1,2-a]pyrazin-4-yl]methyl}benzoic acid]
